From PMC8296985, “A Covalent Calmodulin Inhibitor as a Tool to Study Cellular Mechanisms of K-Ras-Driven Stemness” (Frontiers in Cell and Developmental Biology, 2021)

Key:
K-RasG12V = K-RasG12V nanoclustering-BRET assay in HEK293-EBNA cells; type: cell-based
Description: (§1) BRET assays were essentially performed as described by others ([Lavoie et al., 2013]; [Bery et al., 2018]). About 100,00–150,000 HEK293-EBNA ([Meissner et al., 2001]) cells were seeded per well of a 12-well plate in 1 ml of DMEM containing 10% FBS and 2 mM L-glutamine and were grown for 24 h. Next day, Rluc8-tagged donor and GFP2-tagged acceptor constructs were transfected into cells using a jetPRIME transfection reagent (cat. no. 114-75, Polyplus). Each well was transfected with about 1 μg of plasmid DNA using 3 μl of the jetPRIME reagent. For BRET donor saturation titration experiments, the concentration of donor plasmid (25 ng) was kept constant, and the concentration of acceptor plasmid was increased from 0 to 500 ng for RasG12V BRET pairs and 0–1,000 ng for K-Ras/CaM BRET pairs. The empty pcDNA3.1(-) plasmid was used to top-up the total DNA load per transfection. After 24 h of transfection, cells were treated with compounds or vehicle control (DMSO 0.2% v/v in a growth medium) at the specified concentration for 24 h or the stipulated time period in case of the time-course experiments. The cells from one well of a 12-well plate were collected, washed, and re-plated in PBS (cat. no. 14190-094, Gibco, Thermo Fisher Scientific) on flat bottom, white 96-well plates (cat. no. 236108, Nunc, Thermo Fisher Scientific) as four technical replicates containing 90 μl of cell suspension per well. Then fluorescence intensity followed by BRET readings were carried out on a Clariostar (BMG Labtech) plate reader at 25°C. The fluorescence intensity (RFU) of GFP2 was measured with excitation at 405 ± 10 nm and emission 515 ± 10 nm; it is proportional to the acceptor concentration [acceptor]. BRET readings were taken well by well by adding 10 μl of 100 μM coelenterazine 400a (cat. no. C-320, GoldBio), the Rluc8 substrate to each well (final concentration of 10 μM) using the injector present in the plate reader. Luminescence emission intensities were simultaneously recorded at 410 ± 40 nm (RLU, proportional to [donor]) and 515 ± 15 nm (BRET signal).
(§2) The raw BRET ratio was calculated as the BRET signal measured at 515 nm divided by the emission signal measured at 410 nm (RLU). The BRET ratio was obtained by subtracting the raw BRET ratio by a background BRET signal measured for cells expressing only the donor ([Bacart et al., 2008]) as indicated in the formula below:
(§3) For BRET donor saturation titration experiments, the BRET ratio was plotted against the [acceptor]/[donor] ratio. Technical repeat data points were averaged, and data points from all biological repeats were collected into one graph for subsequent fitting. The BRET ratio vs. relative expression data were fitted using a binding saturation equation in the Prism (GraphPad) software to obtain BRETmax and BRET50 using the equation y=BRETmax×x/BRET50+x , where x is the relative expression and y is the BRET ratio. BRETmax represents the maximum saturation BRET signal and depends on the structural parameters (distance, orientation) of the BRET complex. BRET50 corresponds to the ratio of the acceptor construct over the donor construct required to attain 50% of the maximum BRET signal and is a measure of the effective relative affinity between the interacting BRET pair ([Marullo and Bouvier, 2007]).
When applying the DSS analysis to nanoclustering-BRET data, we used mevastatin (10 μM) to obtain the asymptote parameter (a) for the maximal inhibition effect, as it prevents the prenylation of Ras proteins, their plasma membrane trafficking, and therefore nanoclustering. Otherwise, normalized BRET ratio data were converted to % inhibition and then subsequently uploaded onto the Breeze site (see text footnote 1).

K-RasG12V/CaM = biological target: T1, K-RasG12V/CaM (Homo sapiens, UniProt P0DP23); assay: Rluc8-K-RasG12V/GFP2-CaM interaction BRET in HEK293-EBNA cells; type: cell-based; conditions: for IC50: 24-h exposure, A/D plasmid ratio 9/1, read-out: IC50 of Rluc8-K-RasG12V/GFP2-CaM BRET signal
T1 construct: expressed in transfected cells; host or cells: HEK293-EBNA
Description: as §1, §2, §3

[1] = biological target: T2, mutCaM (CaM with K75Q, K77Q, and K148Q mutations) (Homo sapiens, UniProt P0DP23, K76Q/K78Q); assay: Fluorescence polarization assay with F-CaMKII peptide and His-mutCaM; type: binding; conditions: 50 nM His-mutCaM, 5 nM F-CaMKII, compared to wt CaM
T2 construct: made in house; host or cells: E. coli BL21 Star (DE3)pLysS
Description: Our numbering of CaM follows ([Kong Au and Chow Leung, 1998]) with Ala being the first amino acid in human CaM, as the N-terminal methionine of CaM is removed in most organisms ([Halling et al., 2016]). […] At A600 of 0.6–0.8, the culture was induced with 0.5 mM of isopropyl β-D-thiogalactopyranoside and expressed for 16 h at 25°C. Cells were collected by centrifugation and incubated on ice for 30 min. The cell suspension was sonicated in a lysis buffer (20 mM HEPES, pH 7.6, 150 mM NaCl, 5 mM MgCl2, 0.5 mg/ml lysozyme, and DNase I). The lysates were clarified by centrifugation at 18,000 g for 30 min at 4°C. The soluble fractions were subjected to protein purification.

calmodulin (CaM) = calmodulin (CaM) (Bos taurus, UniProt P62157); assay: Fluorescence polarization assay, displacement of F-PMCA peptide from CaM; conditions: for kinact/KI: read-out: k2/Ki second-order rate constant

Row | Kd (calmodulin (CaM)) [µM] | affinity difference between Calmirasone1 and calmidazolium (calmodulin (CaM); Kd 0.87 μM vs […]) [fold] | affinity for CaM relative to OphA (calmodulin (CaM); after 24-h incubation, higher affinity than OphA) | Compound | time-dependent change of K-RasG12V nanoclustering-BRET signal (K-RasG12V; 2-h treatment timeframe, OphA 10 μM, mevastatin 10 μM) | K-Ras selective reduction of nanoclustering-BRET (K-Ras vs H-Ras) (K-RasG12V; 24 h, calmidazolium 20 μM, OphA 2.5 μM, prostratin 10 μM, mevastatin 10 μM, benzazulenones 20 μM) [fold] | IC50 (K-RasG12V/CaM) [µM] | effect on Rluc8-K-RasG12V/GFP2-CaM BRET signal, single concentration (K-RasG12V/CaM; calmidazolium 20 μM, prostratin 20 μM, OphA 5 μM) | binding to mutCaM over time [1] | Ki (calmodulin (CaM)) [µM] | kinact/KI (calmodulin (CaM)) [M⁻¹ s⁻¹] | reduction in the K-RasG12V BRET signal (K-RasG12V; 1 at 50 μM, within 10 min of treatment) [%] | higher effectivity than calmidazolium in cell biological experiments (K-RasG12V; Calmirasone1 used at 2.5-fold higher concentration, Figures 3F, 7B) [fold]
1 |  |  |  | CC(C)=C[C@H]1C[C@H](C)[C@]2(CC[C@]3(C)C[C@H]4[C@H](C(=O)C[C@@]4(C)O)/C(C=O)=C\C[C@H]32)O1 [OphA, Ophiobolin A, reference compound] | no significant BRET change | 1.2 | 12 ± 2 | significantly reduced the BRET signal | no binding was observed to mutCaM | 79 | 3.89 |  | 
2 | 0.87 | 64 | fourfold | CC(C)c1ccc2cc(C(F)(F)F)c(=O)c3c(N4CCCCC4)c(C=O)c(c1)c23 [Compound 1] |  |  | 31 ± 2 |  | displayed binding to mutCaM | 52 | 2.78 | 38 | > 25
